Structures can show the parent of a compound that is named as a salt.
Key:
CDK12 wt/CycK = biological target: T1, CDK12 wt/CycK (Homo sapiens, UniProt Q9NYV4); assay: Radiometric protein kinase assay (33PanQinase), assay condition 2, thiol containing conditions; assay type: biochemical; details: thiol containing conditions (1.2 mM DTT), ATP 0.3 μM
T1 construct: either as full-length or enzymatically active fragments
Protocol: Example 1—Assay condition 2 (thiol containing conditions)
Objective: The IC50 profile of test compounds was determined using protein kinases. IC50 values were measured by testing 10 concentrations (1×10^−04M, 3×10^−05M, 1×10^−05M, 3×10^−06M, 1×10^−06M, 3×10^−07M, 1×10^−07M, 3×10^−08M, 1×10^−08M, and 3×10^−09M) of each compound in singlicate.
Test compounds: The compounds were provided as pre-weighed powders in vials. The compounds were dissolved to 1×10^−02M by adding DMSO. 100 μl of each of the resulting stock solutions were transferred into column 2 of four 96 well “master plates”
Prior to testing, the 1×10^−02M stock solutions in column 2 of the master plates were subjected to a serial, semi-logarithmic dilution using 100% DMSO as a solvent. […] Column 1 and 7 were filled with 100% DMSO as controls. Subsequently, 2×10 μl from each well of the serial diluted copy plates were aliquoted with a 96 channel pipettor into two identical sets of “compound dilution plates”.
In the process, 90 μl H2O were added to each well of a set of compound dilution plates. To minimize potential precipitation, the H2O was added to each plate only a few minutes before the transfer of the compound solutions into the assay plates. Each plate was shaken thoroughly, resulting in a “compound dilution plate/ 10% DMSO”.
For the assays, 5 μl solution from each well of the compound dilution plates/10% DMSO were transferred into the assay plates. The final volume of the assay was 50 μl. All compounds were tested at 10 final assay concentrations in the range from 1×10^−04M to 3×10^−09M, in singlicate. The final DMSO concentration in the reaction cocktails was 1% in all cases.
Recombinant protein kinases: All protein kinases were expressed in Sf9 insect cells or in E.coli as recombinant GST-fusion proteins or His-tagged proteins, either as full-length or enzymatically active fragments. All kinases were produced from human cDNAs and purified by either GSH-affinity chromatography or immobilized metal. Affinity tags were removed from a number of kinases during purification. The purity of the protein kinases was examined by SDS-PAGE/Coomassie staining, the identity was checked by mass spectroscopy.
Protein kinase assay: A radiometric protein kinase assay (^33PanQinase® Activity Assay) was used for measuring the kinase activity. All kinase assays were performed in 96-well FlashPlates™ from PerkinElmer (Boston, MA, USA) in a 50 μl reaction volume. The reaction cocktail was pipetted in four steps in the following order: • 20 μl of assay buffer (standard buffer) • 5μl of ATP solution (in H2O) • 5μl of test compound (in 10% DMSO) • 20 μl enzyme/substrate mix
The assay for all protein kinases contained 70 mM HEPES-NaOH pH 7.5, 3 mM MgCl2, 3 mM MnCl2, 3 μM Na-orthovanadate, 1.2 mM DTT, 50 μg/ml PEG20000, ATP (variable concentrations, corresponding to the apparent ATP-K. of the respective kinase), [γ-^33P]-ATP (approx. 9×10^05cpm per well), protein kinase, and substrate.
The following amounts of enzyme and substrate were used per well:
The reaction cocktails were incubated at 30° C. for 60 minutes. The reaction was stopped with 50 μl of 2% (v/v) H3PO4, plates were aspirated and washed two times with 200 μl 0.9% (w/v) NaCl. Incorporation of ^33Pi was determined with a microplate scintillation counter (Microbeta, Wallac). All assays were performed with a BeckmanCoulter/SAGIANTM Core System.
Evaluation of raw data: The median value of the counts in column 1 (n=8) of each assay plate was defined as “low control”. This value reflects unspecific binding of radioactivity to the plate in the absence of a protein kinase but in the presence of the substrate. The median value of the counts in column 7 of each assay plate (n=8) was taken as the “high control”, i.e. full activity in the absence of any inhibitor. The difference between high and low control was taken as 100% activity. […]

CDK12 = biological target: T2, CDK12 (Homo sapiens, UniProt Q9NYV4); assay: Radiometric protein kinase assay (33PanQinase), assay condition 1, thiol-free conditions; assay type: biochemical; details: thiol-free conditions (1 mM TCEP), ATP at apparent Km
T2 construct: ProQinase (named as the party running the assay)
Protocol: Example 2 —Assay condition 1 (thiol-free conditions)
The IC50 profile of compounds was determined using protein kinase in a customized, thiol free assay. IC50 values were measured by testing 10 concentrations (1×10^−05 M to 3×10^−10 M) of each test compound in singlicate against each kinase of interest. Prior to testing, the 1×10^−03M stock solutions in column 2 of the master plates were subjected to a serial, semi-logarithmic dilution using 100% DMSO as a solvent. […] Column 1 and 7 were filled with 100% DMSO as controls. Subsequently, 2×10 microliter from each well of the serial diluted copy plates were aliquoted with a 96 channel pipettor into two identical sets of “compound dilution plates”. All plates were barcoded for automated identification and tracking purposes. IC50 values were measured by testing 10 concentrations (1×10^−05 M to 3×10^−10 M) of each compound in singlicate. All compounds were stored as powder until being solubilized in DMSO. Solubilized compounds were stored as 1×10^−02 M/100% DMSO stock solutions. Prior to the assay process, 90 microliters of H2O were added to each well of a set of compound dilution plates. To minimize potential precipitation, the H2O was added to each plate only a few minutes before the transfer of the compound solutions into the assay plates. Each plate was shaken thoroughly, resulting in compound dilution plates with a final of 10% DMSO. For each assay, 5 microliters of solution from each well of the compound dilution plates/10% DMSO were transferred into the assay plate. The final volume of the assay was 50 μl. All compounds were tested at 10 final assay concentrations in the range from 1×10^−05 M to 3×10^−10 M, in singlicate. The final DMSO concentration in the reaction cocktails was 1% in all cases. A radiometric protein kinase assay (33PanQinase® Activity Assay) was used for measuring the kinase activity of the protein kinase. All kinase assays were performed in 96-well FlashPlates™ from PerkinElmer (Boston, Mass., USA) in a 50 microliter reaction volume. The reaction cocktail was pipetted in four steps in the following order: 20 microliter of assay buffer (standard buffer) 5 microliter of ATP solution (in H2O) 5 microliter of test compound (in 10% DMSO) 20 microliter enzyme/subtrate mix. Each assay for the protein kinase contained 70 mM HEPES-NaOH pH 7.5, 3 mM MgCl2, 3 mM MnCl2, 3 microM Na-orthovanadate, 1 mM TCEP, 50 μg/ml PEG20000, ATP (corresponding to the apparent ATP-Km of the kinase, see Table A), [gamma-33P]-ATP (approx. 6×10×E5 cpm per well), with the protein kinase and relevant substrate being used in pre-determined amounts, depending on the kinase in question. For all experiments labeled as “Thiol-free”, all glutathione was exchanged from protein preparations so as to be removed from the assay and final buffer conditions contained no thiol- containing reagents. This was done so there would be no interference with the key cysteines in the proteins of interest.
For data analysis, the median value of the counts in column 1 (n=8) of each assay plate was defined as “low control”. This value reflects unspecific binding of radioactivity to the plate in the absence of a protein kinase but in the presence of the substrate. The median value of the counts in column 7 of each assay plate (n=8) was taken as the “high control”, i.e. full activity in the absence of any inhibitor. The difference between high and low control was taken as 100% activity. As part of the data evaluation the low control value from a particular plate was subtracted from the high control value as well as from all 80 “compound values” of the corresponding plate. The residual activity (in %) for each well of a particular plate was calculated by using the following formula:
Res. Activity (%)=100×[(cpm of compound−low control)/(high control−low control)] […]

T1 sequence (Q9NYV4 whole entry, the tested form may be a part): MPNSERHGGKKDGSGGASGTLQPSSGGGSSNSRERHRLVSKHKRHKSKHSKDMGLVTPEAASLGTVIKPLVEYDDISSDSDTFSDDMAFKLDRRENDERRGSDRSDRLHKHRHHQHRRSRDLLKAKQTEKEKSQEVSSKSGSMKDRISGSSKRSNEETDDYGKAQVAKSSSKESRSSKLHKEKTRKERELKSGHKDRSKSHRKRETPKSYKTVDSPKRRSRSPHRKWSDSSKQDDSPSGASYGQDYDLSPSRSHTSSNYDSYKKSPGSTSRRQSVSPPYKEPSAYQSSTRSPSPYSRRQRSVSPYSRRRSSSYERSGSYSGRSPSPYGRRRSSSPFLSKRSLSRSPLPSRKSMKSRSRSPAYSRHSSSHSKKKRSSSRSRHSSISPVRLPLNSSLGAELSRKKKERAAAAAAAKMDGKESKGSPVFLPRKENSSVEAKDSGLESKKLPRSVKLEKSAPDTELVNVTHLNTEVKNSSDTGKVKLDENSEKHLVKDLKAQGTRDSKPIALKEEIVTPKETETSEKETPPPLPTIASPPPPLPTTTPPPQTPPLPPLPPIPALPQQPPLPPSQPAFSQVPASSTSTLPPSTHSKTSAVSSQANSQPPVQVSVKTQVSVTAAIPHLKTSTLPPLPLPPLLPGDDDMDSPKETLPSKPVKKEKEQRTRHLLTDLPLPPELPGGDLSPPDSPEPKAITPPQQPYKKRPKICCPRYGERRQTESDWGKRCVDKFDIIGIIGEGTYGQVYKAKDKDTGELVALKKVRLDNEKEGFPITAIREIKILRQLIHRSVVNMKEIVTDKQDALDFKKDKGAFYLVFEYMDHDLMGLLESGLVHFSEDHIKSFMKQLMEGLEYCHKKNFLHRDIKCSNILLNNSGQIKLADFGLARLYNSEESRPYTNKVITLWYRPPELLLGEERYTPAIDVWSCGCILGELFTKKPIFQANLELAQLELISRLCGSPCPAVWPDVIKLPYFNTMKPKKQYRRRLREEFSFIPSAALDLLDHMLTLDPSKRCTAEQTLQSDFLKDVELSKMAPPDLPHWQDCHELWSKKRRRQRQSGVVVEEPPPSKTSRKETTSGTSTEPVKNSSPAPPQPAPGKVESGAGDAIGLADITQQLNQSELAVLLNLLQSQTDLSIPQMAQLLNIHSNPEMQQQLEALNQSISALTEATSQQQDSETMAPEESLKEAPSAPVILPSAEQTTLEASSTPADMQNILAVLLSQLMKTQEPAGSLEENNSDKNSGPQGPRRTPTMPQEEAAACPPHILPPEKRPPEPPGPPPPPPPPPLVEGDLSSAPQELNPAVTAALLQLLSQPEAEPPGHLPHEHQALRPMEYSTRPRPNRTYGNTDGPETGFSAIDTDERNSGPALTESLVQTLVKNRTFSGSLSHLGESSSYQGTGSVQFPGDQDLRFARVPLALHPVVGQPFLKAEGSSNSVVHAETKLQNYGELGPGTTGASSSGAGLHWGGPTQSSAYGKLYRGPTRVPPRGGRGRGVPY
T1 sequence (O75909 whole entry partner, the tested form may be a part): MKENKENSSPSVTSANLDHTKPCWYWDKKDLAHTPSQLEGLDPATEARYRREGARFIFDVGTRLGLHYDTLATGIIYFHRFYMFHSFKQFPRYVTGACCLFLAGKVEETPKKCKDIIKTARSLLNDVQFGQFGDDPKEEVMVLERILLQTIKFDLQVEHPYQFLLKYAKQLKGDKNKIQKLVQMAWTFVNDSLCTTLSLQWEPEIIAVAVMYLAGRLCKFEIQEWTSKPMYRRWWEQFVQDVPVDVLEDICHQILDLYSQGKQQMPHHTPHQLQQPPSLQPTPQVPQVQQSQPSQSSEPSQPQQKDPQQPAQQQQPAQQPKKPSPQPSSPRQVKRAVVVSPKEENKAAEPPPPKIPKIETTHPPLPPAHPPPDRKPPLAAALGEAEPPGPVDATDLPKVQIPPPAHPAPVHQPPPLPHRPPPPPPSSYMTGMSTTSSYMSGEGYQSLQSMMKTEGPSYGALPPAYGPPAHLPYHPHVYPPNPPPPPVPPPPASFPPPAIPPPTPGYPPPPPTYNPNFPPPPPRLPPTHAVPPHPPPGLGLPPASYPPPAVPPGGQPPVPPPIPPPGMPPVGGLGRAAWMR
T2 sequence (Q9NYV4 whole entry): as the sequence (Q9NYV4 whole entry, the tested form may be a part) above
T2 sequence (O75909 whole entry partner): as the sequence (O75909 whole entry partner, the tested form may be a part) above

| IC50 (CDK12 wt/CycK) [µM] | IC50 (CDK12) [µM] | SMILES |
| --- | --- | --- |
| 0.1 to 1 |  | C=CC(=O)Nc1ccc2c(N3CC[C@@H](Nc4ncc(C#N)cn4)C3)nc(OCC(F)(F)F)nc2c1 [Example 32, (R)—N-(4-(3-((5-cyanopyrimidin-2-yl)amino)pyrrolidin-1-yl)-2-(2,2,2-trifluoroethoxy)quinazolin-7-yl)acrylamide] |
| ≤ 0.1 |  | C=CC(=O)N(C)c1ccc2c(N3CC[C@@H](Nc4ncc(C#N)cn4)C3)nccc2c1 [Example 36, (R)—N-(1-(3-((5-cyanopyrimidin-2-yl)amino)pyrrolidin-1-yl)isoquinolin-6-yl)-N-methylacrylamide] |
| ≤ 0.1 |  | C=CC(=O)Nc1ccc2c(N3CC[C@@H](Nc4ncc(C#N)cn4)C3)nc(N3CCOCC3)cc2c1 [Example 37, (R)—N-(1-(3-((5-cyanopyrimidin-2-yl)amino)pyrrolidin-1-yl)-3-morpholinoisoquinolin-6-yl)acrylamide] |
| ≤ 0.1 |  | Cc1nc(N2CC[C@@H](Nc3ncc(Cl)c(-c4cnn5ccccc45)n3)C2)c2ccc(NC(=O)/C=C/CN(C)C)cc2n1 [Example 35, (R,E)—N-(4-(3-((5-chloro-4-(pyrazolo[1,5-a]pyridin-3-yl)pyrimidin-2-yl)amino)pyrrolidin-1-yl)-2-methylquinazolin-7-yl)-4-(dimethylamino)but-2-enamide] |
|  | 0.1 to 1 | C=CC(=O)Nc1ccc2c(N3CC[C@@H](Nc4ncc(Cl)c(Oc5ccccc5)n4)C3)ncnc2c1 [Example 7, (R)-N-(4-(3-((5-chloro-4-phenoxypyrimidin-2-yl)amino)pyrrolidin-1-yl)quinazolin-7-yl)acrylamide] |
|  | 0.1 to 1 | C=CC(=O)Nc1ccc2c(N3CC[C@@H](Nc4ncc(C#N)cn4)C3)nc(N3CCCC3)nc2c1 [Example 29, (R)—N-(4-(3-((5-cyanopyrimidin-2-yl)amino)pyrrolidin-1-yl)-2-(pyrrolidin-1-yl)quinazolin-7-yl)acrylamide] |
|  | ≤ 0.1 | C=CC(=O)Nc1ccc2c(N3CC[C@@H](Nc4ncc(C#N)cn4)C3)nc(N3CCN(C)CC3)nc2c1 [Example 24, (R)-N-(4-(3-((5-cyanopyrimidin-2-yl)amino)pyrrolidin-1-yl)-2-(4-methylpiperazin-1-yl)quinazolin-7-yl)acrylamide] |
|  | ≤ 0.1 | C=CC(=O)Nc1ccc2c(N3CC[C@@H](Nc4ncc(C#N)cn4)C3)nccc2c1 [Example 26, (R)-N-(1-(3-((5-cyanopyrimidin-2-yl)amino)pyrrolidin-1-yl)isoquinolin-6-yl)acrylamide] |
|  | ≤ 0.1 | C=CC(=O)Nc1ccc2c(N3CC[C@@H](Nc4ncc(C#N)cn4)C3)nncc2c1 [Example 49, (R)—N-(1-(3-((5-cyanopyrimidin-2-yl)amino)pyrrolidin-1-yl)phthalazin-6-yl)acrylamide] |
|  | ≤ 0.1 | C=CC(=O)Nc1ccc2c(N3CC[C@@H](Nc4ncc(C#N)cn4)C3)nnc(N3CCC3)c2c1 [Example 45, (R)—N-(4-(azetidin-1-yl)-1-(3-((5-cyanopyrimidin-2-yl)amino)pyrrolidin-1-yl)phthalazin-6-yl)acrylamide formate] |
|  | ≤ 0.1 | C#Cc1cnc(N[C@@H]2CCN(c3nccc4cc(N(C)C(=O)C=C)ccc34)C2)nc1 [Example 44, (R)—N-(1-(3-((5-ethynylpyrimidin-2-yl)amino)pyrrolidin-1-yl)isoquinolin-6-yl)-N-methylacrylamide] |
|  | ≤ 0.1 | C#Cc1cnc(N[C@@H]2CCN(c3nnc(N4CCC4)c4cc(NC(=O)C=C)ccc34)C2)nn1 [Example 53] |
|  | ≤ 0.1 | C=CC(=O)Nc1ccc2c(N3CC[C@@H](Nc4ncc(C(F)(F)F)c(NC)n4)C3)ncnc2c1 [Example 15, (R)-N-(4-(3-((4-(methylamino)-5-(trifluoromethyl)pyrimidin-2-yl)amino)pyrrolidin-1-yl)quinazolin-7-yl)acrylamide] |
|  | ≤ 0.1 | C=CC(=O)Nc1ccc2c(N3CC[C@@H](Nc4ncc(C5CC5)cn4)C3)ncnc2c1 [Example 10, (R)-N-(4-(3-((5-cyclopropylpyrimidin-2-yl)amino)pyrrolidin-1-yl)quinazolin-7-yl)acrylamide] |
|  | ≤ 0.1 | C=CC(=O)Nc1ccc2c(N3CC[C@@H](Nc4ncc(C#N)cn4)C3)ncnc2c1 [Example 12, (R)-N-(4-(3-((5-cyanopyrimidin-2-yl)amino)pyrrolidin-1-yl)quinazolin-7-yl)acrylamide] |
|  | ≤ 0.1 | C=CC(=O)Nc1ccc2c(N3CC[C@@H](Nc4ncc(Br)cn4)C3)ncnc2c1 [Example 25, (R)-N-(4-(3-((5-bromopyrimidin-2-yl)amino)pyrrolidin-1-yl)quinazolin-7-yl)acrylamide] |
|  | ≤ 0.1 | C=CC(=O)Nc1ccc2c(N3CC[C@@H](Nc4ncc(C(F)(F)F)c(N)n4)C3)ncnc2c1 [Example 6, (R)-N-(4-(3-((4-amino-5-(trifluoromethyl)pyrimidin-2-yl)amino)pyrrolidin-1-yl)quinazolin-7-yl)acrylamide] |
